From patent US20260070924A1, “INDAZOLE MACROCYCLES AND THEIR USE” (BLOSSOMHILL THERAPEUTICS, INC., priority 2022, published 2026)

Legend:
[1] = biological target: FLT3 (K663Q) (Homo sapiens (Human), UniProt P36888, K663Q); experiment: KINOMEscan binding assay (Eurofins DiscoveRx)
Procedure: (§1) For most kinases, kinase-tagged T7 phage strains were prepared in an E. coli host derived from the BL21 strain. E. coli were grown to log-phase and infected with T7 phage and incubated with shaking at 32° C. until lysis. The lysates were centrifuged and filtered to remove cell debris. The remaining kinases were produced in HEK-293 cells and subsequently tagged with DNA for qPCR detection. Streptavidin-coated magnetic beads were treated with biotinylated small molecule ligands for 30 minutes at room temperature to generate affinity resins for kinase assays. The liganded beads were blocked with excess biotin and washed with blocking buffer (SeaBlock (Pierce), 1% BSA, 0.05% Tween 20, 1 mM DTT) to remove unbound ligand and to reduce non-specific binding. […] Test compounds were prepared as 111× stocks in 100% DMSO. Kds were determined using an 11-point 3-fold compound dilution series with three DMSO control points. […] The compounds were then diluted directly into the assays such that the final concentration of DMSO was 0.9%. All reactions performed in polypropylene 384-well plate. Each was a final volume of 0.02 ml. […] The kinase concentration in the eluates was measured by qPCR. Binding constants (Kds) were calculated with a standard dose-response curve using a non-linear least square fit with the Levenberg-Marquardt algorithm.

[2] = biological target: FLT3 (D835V) (Homo sapiens (Human), UniProt P36888, D835V); experiment: KINOMEscan binding assay (Eurofins DiscoveRx)
Procedure: as §1

[3] = system: BCLxS/xL; experiment: Alternative splicing ratio by qPCR in MOLM-13; type: cell-based; settings: DMSO = 1.00
Procedure: Alternative splicing ratio of RNA transcripts was measured by qPCR in MV-4-11 and MOLM-13 cell lines. Cells were plated in 24 well plates at 1 million cells per well and then treated with compounds at different concentrations, with DMSO only as control. After 8-hour-incubation, cells were harvested and washed once with ice-cold PBS, and lysed in RNA lysis buffer (Invitrogen). Total RNA was extracted using the RNA Purification Kit (Invitrogen). 2 μg of RNA was used for cDNA synthesis using cDNA synthesis kit (ThermoFisher) and 20 ng of cDNA was used for qPCR using PROFLEX 96-Well PCR System (ThermoFisher).
• BCLxS/xL (SYBR Green, IDT)

[4] = biological target: PIM3 (Homo sapiens (Human), UniProt Q86V86); experiment: HotSpot radiometric kinase assay (Reaction Biology); type: biochemical
Procedure: (§2) Briefly, specific kinase/substrate pairs along with required cofactors were prepared in reaction buffer; 20 mM Hepes pH 7.5, 10 mM MgCl2, 1 mM EGTA, 0.02% Brij35, 0.02 mg/ml BSA, 0.1 mM Na3VO4, 2 mM DTT, 1% DMSO. Compounds were delivered into the reaction, followed ˜20 minutes later by addition of a mixture of ATP (Sigma, St. Louis MO) and ^33P ATP (Perkin Elmer, Waltham MA) to a final concentration of […]. Reactions were carried out at room temperature for 120 min, followed by spotting of the reactions onto P81 ion exchange filter paper (Whatman Inc., Piscataway, NJ). Unbound phosphate was removed by extensive washing of filters in 0.75% phosphoric acid. […] IC50 values and curve fits were obtained using Prism (GraphPad Software).

[5] = biological target: PIM1 (Homo sapiens (Human), UniProt P11309); experiment: as above; type: biochemical
Procedure: as §2

[6] = biological target: PIM2 (Homo sapiens (Human), UniProt Q9P1W9); experiment: as above; type: biochemical
Procedure: as §2

[7] = system: phospho-STAT5 (Y694); experiment: Inhibition of kinase phosphorylation by Western Blot in MOLM-13; type: cell-based; settings: MOLM-13 cells, 4 hour-incubation; read-out: pSTAT5 MOLM-13 IC50
Procedure: (§3) Inhibition of kinase phosphorylation assay was performed by Western Blot using MV-4-11 and MOLM13 cell lines. Cells were plated in 24 well plates at 1 million cells per well and then treated with compounds at different concentrations, starting at 100 nM, 1:4 titration with DMSO as control. After 4 hour-incubation, cells were washed once with ice-cold PBS, and lysed in RIPA lysis buffer with protease and phosphatase inhibitors. The cell lysates were then sonicated and spun down, and 40 μg of proteins were separated by sodium dodecyl sulfate electrophoresis on a 4 to 12% Bis-Tris polyacrylamide gel and transferred onto nitrocellulose membranes using Bio-Rad Trans-Blot Turbo Transfer System (Bio-Rad). Blocking was performed using 3% BSA or 5% Non-fat dry milk (Fisher Scientific) in TBST (Tris-buffered saline containing 0.05% of Tween 20) (Bio-Rad Laboratories, Inc.). The membranes were incubated overnight with anti-phospho-FLT3 (Y589/Y591) (CST #60413), anti-phospho-STAT5 (Y694) (CST #4322), anti-Phospho-p44/42 MAPK (Erk1/2) (T202/Y204) (CST #9101), anti-Phospho-S6 Ribosomal Protein (S235/236) (CST #4858) and anti-β-Actin (CST #8457) each diluted 1000 times in 3% BSA in TBST. Membranes were washed with TBST and then incubated at room temperature for 1 hour with HRP-labeled anti-rabbit IgG polyclonal antibody (CST #7074) diluted 1000 times in 3% BSA. After TBST washing, blots were developed with a chemiluminescence system (SuperSignal West Femto Maximum Sensitivity Substrate, Pierce #34095). Luminescence was detected by LI-COR Odyssey M imaging system and luminescence intensity were quantified using Empiria Studio 2.2 software. Data was analyzed using GraphPad Prism 9 (GraphPad Software, San Diego, CA) to obtain IC50 values.

[8] = system: Phospho-S6 Ribosomal Protein (S235/236); experiment: as above; type: cell-based; settings: MOLM-13 cells, 4 hour-incubation; read-out: pS6 MOLM-13 IC50
Procedure: as §3

[9] = system: Phospho-p44/42 MAPK (Erk1/2) (T202/Y204); experiment: as above; type: cell-based; settings: MOLM-13 cells, 4 hour-incubation; read-out: pERK MOLM-13 IC50
Procedure: as §3

[10] = system: phospho-STAT5 (Y694); experiment: Inhibition of kinase phosphorylation by Western Blot in MV-4-11; type: cell-based; settings: MV-4-11 cells, 4 hour-incubation; read-out: pSTAT5 MV-4-11 IC50
Procedure: as §3

[11] = system: Phospho-S6 Ribosomal Protein (S235/236); experiment: as above; type: cell-based; settings: MV-4-11 cells, 4 hour-incubation; read-out: pS6 MV-4-11 IC50
Procedure: as §3

[12] = system: Phospho-p44/42 MAPK (Erk1/2) (T202/Y204); experiment: as above; type: cell-based; settings: MV-4-11 cells, 4 hour-incubation; read-out: pERK MV-4-11 IC50
Procedure: as §3

Sequence of PIM2 (Q9P1W9 whole entry): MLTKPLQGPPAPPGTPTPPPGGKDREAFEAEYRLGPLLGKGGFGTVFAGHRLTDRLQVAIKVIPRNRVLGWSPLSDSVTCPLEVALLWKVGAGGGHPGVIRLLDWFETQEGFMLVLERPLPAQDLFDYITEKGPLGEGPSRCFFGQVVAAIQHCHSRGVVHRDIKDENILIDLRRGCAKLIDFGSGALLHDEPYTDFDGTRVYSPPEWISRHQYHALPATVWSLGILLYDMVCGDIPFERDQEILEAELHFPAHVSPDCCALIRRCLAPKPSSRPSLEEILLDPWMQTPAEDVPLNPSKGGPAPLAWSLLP
Sequence of PIM1 (P11309 whole entry): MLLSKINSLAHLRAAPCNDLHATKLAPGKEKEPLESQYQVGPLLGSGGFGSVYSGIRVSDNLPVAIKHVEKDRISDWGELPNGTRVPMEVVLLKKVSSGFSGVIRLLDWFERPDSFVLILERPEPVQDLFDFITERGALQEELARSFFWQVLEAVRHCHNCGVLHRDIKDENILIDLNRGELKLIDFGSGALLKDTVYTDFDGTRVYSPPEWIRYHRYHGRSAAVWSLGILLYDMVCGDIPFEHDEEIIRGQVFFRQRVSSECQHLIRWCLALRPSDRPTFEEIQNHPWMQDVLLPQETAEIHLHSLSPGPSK

Compound: CCc1nn(C)c2c1/C=C/c1n[nH]c3ccc(cc13)-c1cnn(C)c1OCCN(C)C2=O [Ex. 6, (17E)-16-ethyl-8,12,14-trimethyl-2,11,12,14-tetrahydro-8H-3,5-ethenotripyrazolo[3,4-f:3′,4′-j:4″,3″-n][1,4]oxazacyclopentadecin-13(10H)-one]
- Kd [1]: 16 nM
- Kd [2]: 0.062 nM
- Alternative Splicing Ratio BCL-xS/xL ([3]; MOLM-13, 30 nM): 1.51
- Alternative Splicing Ratio BCL-xS/xL ([3]; MOLM-13, 100 nM): 3.54
- Alternative Splicing Ratio BCL-xS/xL ([3]; MOLM-13, 300 nM): 4.20
- IC50 [4]: 0.115 nM
- IC50 [5]: 2.65 nM
- IC50 [6]: 5.68 nM
- IC50 [7]: 0.72 nM
- IC50 [8]: 2.47 nM
- IC50 [9]: 4.11 nM
- IC50 [10]: 0.6 nM
- IC50 [11]: 0.41 nM
- IC50 [12]: 2.85 nM
